We go through three molecules from US6166290A, “Glutathione-S-conjugate transport in plants” (The Trustees of the University of Pennsylvania, priority 1997, dated 2000).

Test [1] has as its target T1, YCF1 (vacuolar membrane vesicles purified from DTY165 cells) (Saccharomyces cerevisiae, UniProt P39109).
T1 construct: endogenous in cells; host or cells: S. cerevisiae DTY165 (wild type YCF1), vacuolar membrane vesicles
Kind of test: biochemical. It counts as biochemical. Particulars: 24 h, read-out: increase of 109Cd.GS2 uptake into vesicles from pretreated cells. The protocol: In experiments involving cadmium transport, dithiothreitol and EGTA were removed from the suspension medium to prevent the attenuation of YCF1-dependent Cd^2+ transport otherwise exerted by these compounds. Vesiculated vacuolar membranes were subjected to three cycles of 50-fold dilution into simplified suspension medium (1.1 M glycerol, 5 mM Tris-Mes, pH 8.0), centrifugation at 100,000× g for 35 minutes and resuspension in the same medium before use.
Singly radiolabeled ^109 Cd.GSn and doubly radio-labeled ^109 Cd[^3 H].GS^n complexes were prepared by sequential gel-filtrationand anion-exchange chromatography of the reaction products generated by incubating 20 mM ^109 CdSO4 (78.4 mCi/mmol) with 40 mM GSH or 40 mM [^3 H]GSH (240 mCi/mmol) in 15 ml 10 mM phosphate buffer (pH 8.0) containing 150 mM KNO3 at 45° C. for 24 hours. For gel-filtration, 2 ml aliquots of the reaction mixture were applied to a column (40×1.5 cm ID) packed with water-equilibrated Sephadex G-1 5, eluted with deionized water and ^109 Cd and/or ^3 H in the fractions was measured by liquid scintillation counting. The fractions encompassed by each of the two ^109 Cd.GSn peaks identified were pooled, lyophilized and redissolved in 4 ml of loading buffer (5 mM Tris-Mes, pH 8.0). For anion-exchange chromatography, 0.5 ml aliquots of the resuspended lyophilizates from gel-filtration chromatography were applied to a Mono-Q HR5/5 column (Pharmacia) equilibrated with the same buffer. Elution was with a linear gradient of NaCl (0.5 ml/minute; 0-500 mM) dissolved in loading buffer. The individual fractions corresponding to the major peaks of ^109 Cd obtained from the Mono-Q column (one each for the peaks resolved by gel-filtration chromatography) were pooled, lyophilized and resuspended in 4 ml deionized water after liquid scintillation counting.
MgATP-energized, uncoupler-insensitive ^109 Cd^2+ uptake by vacuolar membrane vesicles was measured at 25° C. in 200 μl reaction volumes containing 3 mM ATP, 3 mM MgSO4, 5 μM gramicidin-D, 10 mM creatine phosphate, 16 units/ml creatine kinase, 50 mM KCl, 400 mM sorbitol, 25 mM Tris-Mes (pH 8.0) and the indicated concentrations of ^109 CdSO4, GSH or ^109 Cd- and/or ^3 H-labeled purified Cd.GSn complexes as described herein except that the wash media contained 100 μM CdSO4 in addition to sorbitol (400 mM) and Tris-Mes (3 mM, pH 8.0).

For the next test, the system named is DTY167 cells. Nature of the test: Growth inhibition of DTY167 (ycf1Δ mutant) cells by CDNB. The conditions noted are these: Saccharomyces cerevisiae, 24 hours, read-out: diminution of optical density of culture. The class given is cell-based. How it is done: (§1) FIGS. 1A-1B are a series of graphs depicting differential sensitivities of DYT165 cells (wild type, FIG. 1A) and DTY167 cells (ycf1Δ mutant, FIG. 1B) to growth inhibition by 1-chloro-2,4-dinitrobenzene (CDNB). Cells were grown at 30° C. for 24 hours to an OD600 nm of approximately 1.4 in YPD medium before inoculation of aliquots into 15 ml volumes of the same medium containing 0-60 μM CDNB. OD600 nm was measured at the times indicated.
(§2) Two strains of S. cerevisiae were used in these studies: DTY165 (MATα ura3-52 his6 leu2-3,-112 his3-Δ200 trp1-901 lys2-801 suc2-Δ) and the isogenic ycf1Δ mutant strain, DTY167 (MATα ura 3-52 his6 leu2-3,-112 his3-Δ200 trp 1-901 lys2-801 suc2-Δ, ycf1::hisG). The strains were routinely grown in rich (YPD) medium, or, when transformed with plasmid containing functional YCF1 gene, in synthetic complete medium (Sherman et al., 1983, Methods in Yeast Genetics, Cold Spring Harbor Laboratory, New York) or AHC medium (Kim et al., 1994, supra) lacking the appropriate amino acids. Escherichia coli strains XL1-blue (Stratagene) and DH11S were employed for the construction and maintenance of plasmid stocks (Ausubel et al., 1987, Current Protocols in Molecular Biology, Wiley, New York).
(§3) The isogenic wild type strain DTY165 and the ycf1Δ mutant strain, DTY167, were indistinguishable during growth in YPD medium lacking CDNB; both strains grew at the same rate after a brief lag. However, the addition of CDNB to the culture medium caused a greater retardation of the growth of DTY167 cells (FIG. 1B) than DTY165 cells (FIG. 1A). […] The optical densities of the DTY167 cultures were diminished by 65, 82, 85, and 91% by 40, 50, 60, and 70 μM CDNB, respectively, after 24 hours of incubation (FIG. 1B), whereas the corresponding diminutions for the DTY165 cultures were 14, 31, 59, and 92% (FIG. 1A). The increase in sensitivity to CDNB conferred by deletion of the YCF1 gene was similar to that seen with cadmium.

The subject of the next test is DTY165 cells. Kind of test: Growth inhibition of DTY165 (wild type) cells by CDNB. It counts as cell-based. Particulars: Saccharomyces cerevisiae, 24 hours, read-out: diminution of optical density of culture. The protocol: as §1, §2, §3
The target in test [2] is T1, YCF1 (vacuolar membrane vesicles purified from DTY165 cells). Nature of the test: [3H]DNP-GS uptake by vacuolar membrane vesicles purified from DTY165 cells. The class given is biochemical. Particulars: 24 h, read-out: increase of [3H]DNP-GS uptake into vesicles from pretreated cells. The protocol: For the routine preparation of vacuolar membrane vesicles, 15 ml of stationary phase cultures of DTY165 or DTY167 were diluted into 1-liter volumes of fresh YPD medium, grown for 24 hours at 30° C. to an OD600 nm of approximately 0.8 and collected by centrifugation. After washing with distilled water, the cells were converted to spheroplasts with Zymolyase 20T (ICN) (Kim et al., 1994, supra) and intact vacuoles were isolated by flotation centrifugation of spheroplast lysates on Ficoll 400 step gradients as described by Roberts et al. (1991, Methods. Enzymol. 194:644-661). Both the spheroplast lysis buffer and Ficoll gradients contained 2 mg/ml bovine serum albumin, 1 μg/ml aprotinin, 1 μg/ml leupeptin, 1 μg/ml pepstatin, and 1 mM PMSF to minimize proteolysis. The resulting vacuole fraction was vesiculated in 5 mM MgCl2, 25 mM KCl, 10 mM Tris-Mes (pH 6.9) containing 2 mg/ml bovine serum albumin, 1 μg/ml aprotinin, 1 μg/ml leupeptin, 1 μg/ml pepstatin, and 1 mM PMSF, pelleted by centrifugation at 37,000× g for 25 min, and resuspended in suspension medium (1.1 M glycerol, 2 mM dithiothreitol, 1 mM Tris-EGTA, 2 mg/ml bovine serum albumin, 1 μg/ml aprotinin, 1 μg/ml leupeptin, 1 μg/ml pepstatin, 1 mM PMSF, 5 mM Tris-Mes, pH 7.6) (Kim et al., 1995, J. Biol. Chem. 270:2630-2635).
Unless otherwise indicated, [^3 H]DNP-GS uptake was measured at 25° C. in 200 μl reaction volumes containing 3 mM ATP, 3 mM MgSO4, 5 μM gramicidin-D, 10 mM creatine phosphate, 16 units/ml creatine kinase, 50 mM KC 1, 1 mg/ml bovine serum albumin, 400 mM sorbitol, 25 mM Tris-Mes (pH 8.0), and 66.2 μM [^3 H]DNP-GS (8.7 mCi/mmol) (Li et al., 1995, supra). […] Uptake was initiated by the addition of vacuolar membrane vesicles (10-15 μg of membrane protein), brief mixing of the samples on a vortex mixer and uptake was then allowed to proceed for 1-60 minutes. Uptake was terminated by the addition of 1 ml of ice-cold wash medium (400 mM sorbitol, 3 mM Tris-Mes, pH 8.0) and vacuum filtration of the suspension through prewetted Millipore HA cellulose nitrate membrane filters (pore diameter, 0.45 μm). The filters were rinsed twice with 1 ml of ice-cold wash medium and air-dried, and radioactivity was determined by liquid scintillation counting in BCS mixture (Amersham Corp.). Nonenergized [^3 H]DNP-GS uptake and extravesicular solution trapped on the filters were enumerated by the same procedure except that ATP and Mg^2 +were omitted from the uptake medium.

Test [3] relates to endogenous GS-X pump of plant vacuolar membranes. Particulars: read-out: Km for transport by endogenous plant vacuolar GS-X pump; cited from earlier work.
For the next test, the target named is T2, AtMRP1 (Arabidopsis thaliana, UniProt Q9C8G9).
T2 construct: S. cerevisiae DTY168 (ycf1 null) vacuolar-enriched membrane vesicles
Nature of the test: AtMRP1-dependent uptake by membrane vesicles from pYES3-AtMRP1-transformed DTY168 cells. It counts as biochemical. The conditions noted are these: 50 μM. More on the design: rate of C3G-GS uptake: unit not given here. How it is done: S. cerevisiae strain DTY168 (MATα his6, leu2-3, -112, ura3-52 ycf1::hisG) was transformed with pYES3-AtMRP1 or empty vector lacking the AtMRP1 insert (pYES3) by the LiOAc/PEG method (Giest et al., 1991, Yeast 7:253-263) and selected for uracil prototrophy by plating on AHC medium containing tryptophan (Kim et al., 1994, supra).
For the preparation of membrane vesicles, 15 ml volumes of stationary phase cultures of the transformants were diluted into 1 L of fresh AHC medium and grown to an OD600 nm of about 1.2. Membrane vesicles were purified as described herein and in Kim et al. (1995, supra).
[…] μl reaction volumes containing 3 mM ATP, 3 mM MgSO4, 5 μM gramicidin-D, 10 mM creatine phosphate, 16 units/ml creatine kinase, 50 mM KCl, 1 mg/ml BSA, 400 mM sorbitol, 25 mM Tris-Mes ([…]).
(§4) Cells were grown and vacuolar membrane-enriched vesicles were prepared as described (Kim et al., 1995, J Biol. Chem. 270:2630-2635-). […] Uptake was terminated by the addition of 1 ml ice-cold wash medium (400 mM sorbitol/3 mM Tris-Mes, pH 8.0) and vacuum filtration of the suspension through prewetted Millipore HA cellulose nitrate filters (pore size 0.45 μm). The filters were rinsed twice with wash medium, and the retained radioactivity was determined by liquid scintillation counting. Nonenergized uptake was estimated by the same procedure except that ATP was omitted from the uptake medium.

Test [4] relates to vacuolar GS-X pump (vacuolar membrane vesicles, Z. mays roots). Kind of test: GS-conjugate uptake by vacuolar membrane vesicles from roots of Z. mays. It counts as biochemical, Zea mays.
For test [5], the system named is vacuolar GS-X pump (vacuolar membrane vesicles, V. radiata hypocotyls). Particulars: cited from earlier work.
The test system is the same in test [6]. Nature of the test: GS-conjugate uptake by vacuolar membrane vesicles from etiolated hypocotyls of V. radiata. The class given is biochemical, Vigna radiata. Particulars: V. radiata. How it is done: Values shown are means ±SE (n=3).
Vacuolar membrane vesicles were purified from etiolated hypocotyls of V. radiata cv.
Unless otherwise indicated, [^3 H]medicarpin or [3H]medicarpin-GS uptake was measured at 25° C. in 200 μl reaction volumes containing 3 mM ATP, 3 mM MgSO4, 10 mM creatine phosphate, 16 U/ml creatine kinase, 50 mM KCl, 0.1% (w/v) BSA, 400 mM sorbitol and 25 mM Tris-Mes buffer, pH 8.0. Uptake was initiated by the addition of 12 μl membrane vesicles (30-40 μg protein) and brief mixing of the samples on a vortex mixer. Uptake was terminated by the addition of 1 ml ice-cold wash medium (400 mM sorbitol, 3 mM Tris-Mes, pH 8.0) and vacuum filtration of the suspension through prewetted HA cellulose nitrate filters (pore diameter 0.45 μm). The filters were rinsed twice with a 1 ml ice-cold wash medium, air-dried and radioactivity was determined by liquid scintillation counting.

The next test has as its target T3, AtMRP2 (Arabidopsis thaliana, UniProt Q42093).
T3 construct: S. cerevisiae DTY168 (ycf1 null) vacuolar-enriched membrane vesicles
Kind of test: AtMRP2-dependent uptake by membrane vesicles from pYES3-AtMRP2-transformed DTY168 cells. It counts as biochemical. The conditions noted are these: 50 μM. The protocol:
as §4
Membranes from DTY168/pYES3-AtMRP2 cells were incubated for 10 minutes in standard uptake medium containing 61.3 μM [^3 H]DNP-GS after which time 200 mM glucose and 50 units/ml hexokinase (Type F-300 from baker's yeast) were added. […] Control samples were treated identically except that no additions were made after the initial 10 minute incubation period.

The mark [7] stands for this setting: read-out: Km for MgATP-dependent, uncoupler-insensitive uptake.

T1 sequence (P39109 whole entry): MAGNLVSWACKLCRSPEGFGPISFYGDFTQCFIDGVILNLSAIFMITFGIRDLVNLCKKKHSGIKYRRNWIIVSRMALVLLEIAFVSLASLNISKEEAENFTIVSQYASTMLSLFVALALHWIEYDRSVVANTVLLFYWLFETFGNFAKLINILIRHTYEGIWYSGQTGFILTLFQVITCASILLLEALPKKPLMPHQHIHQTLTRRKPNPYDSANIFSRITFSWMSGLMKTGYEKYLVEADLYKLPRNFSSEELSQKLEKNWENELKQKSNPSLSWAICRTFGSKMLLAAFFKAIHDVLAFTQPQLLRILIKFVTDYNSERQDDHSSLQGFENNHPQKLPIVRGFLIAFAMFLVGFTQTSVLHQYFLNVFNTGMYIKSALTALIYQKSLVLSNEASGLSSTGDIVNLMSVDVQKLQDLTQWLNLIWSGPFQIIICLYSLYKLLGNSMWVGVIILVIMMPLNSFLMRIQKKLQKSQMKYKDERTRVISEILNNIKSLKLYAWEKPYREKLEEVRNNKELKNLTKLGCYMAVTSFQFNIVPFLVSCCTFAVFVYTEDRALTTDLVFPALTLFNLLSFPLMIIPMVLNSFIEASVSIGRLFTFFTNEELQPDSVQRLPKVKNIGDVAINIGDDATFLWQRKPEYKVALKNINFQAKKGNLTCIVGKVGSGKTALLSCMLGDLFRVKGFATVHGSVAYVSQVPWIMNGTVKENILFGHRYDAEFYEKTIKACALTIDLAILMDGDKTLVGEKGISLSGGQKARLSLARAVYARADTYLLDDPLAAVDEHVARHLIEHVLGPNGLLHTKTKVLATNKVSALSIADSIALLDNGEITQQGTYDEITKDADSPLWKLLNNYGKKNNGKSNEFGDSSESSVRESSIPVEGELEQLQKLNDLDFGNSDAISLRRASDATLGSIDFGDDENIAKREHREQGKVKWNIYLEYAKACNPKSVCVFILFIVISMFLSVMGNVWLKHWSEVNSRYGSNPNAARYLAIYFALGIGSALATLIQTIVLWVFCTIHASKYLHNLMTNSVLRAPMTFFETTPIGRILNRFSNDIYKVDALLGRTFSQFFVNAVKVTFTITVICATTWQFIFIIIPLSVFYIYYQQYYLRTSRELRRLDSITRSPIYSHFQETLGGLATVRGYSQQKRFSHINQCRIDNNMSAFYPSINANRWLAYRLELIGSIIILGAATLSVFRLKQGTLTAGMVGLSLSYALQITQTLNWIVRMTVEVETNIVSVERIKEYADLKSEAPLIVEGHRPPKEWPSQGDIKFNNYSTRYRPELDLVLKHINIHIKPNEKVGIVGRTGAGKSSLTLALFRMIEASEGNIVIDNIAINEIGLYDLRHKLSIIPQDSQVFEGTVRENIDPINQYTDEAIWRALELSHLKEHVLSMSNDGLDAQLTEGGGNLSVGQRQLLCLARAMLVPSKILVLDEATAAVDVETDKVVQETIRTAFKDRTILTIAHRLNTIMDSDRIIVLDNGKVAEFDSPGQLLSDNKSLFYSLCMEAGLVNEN
T3 sequence (Q42093 whole entry): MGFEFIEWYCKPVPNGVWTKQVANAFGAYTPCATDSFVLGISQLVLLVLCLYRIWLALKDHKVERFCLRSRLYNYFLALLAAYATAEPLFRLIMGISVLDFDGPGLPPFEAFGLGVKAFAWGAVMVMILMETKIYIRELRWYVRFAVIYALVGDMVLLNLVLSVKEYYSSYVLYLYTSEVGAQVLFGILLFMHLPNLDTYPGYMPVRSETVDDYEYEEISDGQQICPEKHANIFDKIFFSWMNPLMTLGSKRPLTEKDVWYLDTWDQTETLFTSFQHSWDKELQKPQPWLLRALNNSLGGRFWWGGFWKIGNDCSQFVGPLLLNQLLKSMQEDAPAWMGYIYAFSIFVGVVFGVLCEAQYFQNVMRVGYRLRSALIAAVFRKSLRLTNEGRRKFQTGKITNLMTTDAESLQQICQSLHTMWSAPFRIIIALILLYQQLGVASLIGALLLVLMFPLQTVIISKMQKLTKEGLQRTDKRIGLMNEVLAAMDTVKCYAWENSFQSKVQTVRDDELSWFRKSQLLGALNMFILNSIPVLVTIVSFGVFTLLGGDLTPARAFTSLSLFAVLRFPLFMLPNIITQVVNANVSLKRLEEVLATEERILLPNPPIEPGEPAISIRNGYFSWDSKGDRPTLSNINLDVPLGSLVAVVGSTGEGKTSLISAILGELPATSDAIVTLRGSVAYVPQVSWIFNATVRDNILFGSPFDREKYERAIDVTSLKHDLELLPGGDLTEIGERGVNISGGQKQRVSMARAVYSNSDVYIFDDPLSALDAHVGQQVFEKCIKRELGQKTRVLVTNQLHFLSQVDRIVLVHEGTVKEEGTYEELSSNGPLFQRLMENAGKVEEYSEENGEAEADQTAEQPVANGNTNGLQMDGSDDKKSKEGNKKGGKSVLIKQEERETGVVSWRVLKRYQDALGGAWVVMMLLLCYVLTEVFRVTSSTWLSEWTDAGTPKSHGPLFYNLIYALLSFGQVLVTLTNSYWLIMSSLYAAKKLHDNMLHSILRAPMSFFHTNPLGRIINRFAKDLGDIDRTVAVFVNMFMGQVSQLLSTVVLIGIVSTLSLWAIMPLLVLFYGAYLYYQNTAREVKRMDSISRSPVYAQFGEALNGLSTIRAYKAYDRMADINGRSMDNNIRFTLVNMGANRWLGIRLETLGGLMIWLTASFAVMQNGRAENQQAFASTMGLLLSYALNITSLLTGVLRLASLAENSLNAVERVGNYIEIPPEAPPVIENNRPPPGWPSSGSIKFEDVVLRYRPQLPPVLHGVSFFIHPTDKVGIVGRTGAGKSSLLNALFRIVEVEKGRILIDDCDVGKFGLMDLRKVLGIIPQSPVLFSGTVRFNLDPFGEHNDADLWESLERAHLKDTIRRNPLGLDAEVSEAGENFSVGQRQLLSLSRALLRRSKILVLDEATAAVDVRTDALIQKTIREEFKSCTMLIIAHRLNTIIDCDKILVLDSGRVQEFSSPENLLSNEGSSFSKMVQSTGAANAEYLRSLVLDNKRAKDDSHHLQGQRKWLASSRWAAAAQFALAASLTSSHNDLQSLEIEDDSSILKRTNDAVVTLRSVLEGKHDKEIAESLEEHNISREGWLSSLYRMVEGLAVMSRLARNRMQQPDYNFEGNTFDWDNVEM
T2 sequence (Q9C8G9 whole entry): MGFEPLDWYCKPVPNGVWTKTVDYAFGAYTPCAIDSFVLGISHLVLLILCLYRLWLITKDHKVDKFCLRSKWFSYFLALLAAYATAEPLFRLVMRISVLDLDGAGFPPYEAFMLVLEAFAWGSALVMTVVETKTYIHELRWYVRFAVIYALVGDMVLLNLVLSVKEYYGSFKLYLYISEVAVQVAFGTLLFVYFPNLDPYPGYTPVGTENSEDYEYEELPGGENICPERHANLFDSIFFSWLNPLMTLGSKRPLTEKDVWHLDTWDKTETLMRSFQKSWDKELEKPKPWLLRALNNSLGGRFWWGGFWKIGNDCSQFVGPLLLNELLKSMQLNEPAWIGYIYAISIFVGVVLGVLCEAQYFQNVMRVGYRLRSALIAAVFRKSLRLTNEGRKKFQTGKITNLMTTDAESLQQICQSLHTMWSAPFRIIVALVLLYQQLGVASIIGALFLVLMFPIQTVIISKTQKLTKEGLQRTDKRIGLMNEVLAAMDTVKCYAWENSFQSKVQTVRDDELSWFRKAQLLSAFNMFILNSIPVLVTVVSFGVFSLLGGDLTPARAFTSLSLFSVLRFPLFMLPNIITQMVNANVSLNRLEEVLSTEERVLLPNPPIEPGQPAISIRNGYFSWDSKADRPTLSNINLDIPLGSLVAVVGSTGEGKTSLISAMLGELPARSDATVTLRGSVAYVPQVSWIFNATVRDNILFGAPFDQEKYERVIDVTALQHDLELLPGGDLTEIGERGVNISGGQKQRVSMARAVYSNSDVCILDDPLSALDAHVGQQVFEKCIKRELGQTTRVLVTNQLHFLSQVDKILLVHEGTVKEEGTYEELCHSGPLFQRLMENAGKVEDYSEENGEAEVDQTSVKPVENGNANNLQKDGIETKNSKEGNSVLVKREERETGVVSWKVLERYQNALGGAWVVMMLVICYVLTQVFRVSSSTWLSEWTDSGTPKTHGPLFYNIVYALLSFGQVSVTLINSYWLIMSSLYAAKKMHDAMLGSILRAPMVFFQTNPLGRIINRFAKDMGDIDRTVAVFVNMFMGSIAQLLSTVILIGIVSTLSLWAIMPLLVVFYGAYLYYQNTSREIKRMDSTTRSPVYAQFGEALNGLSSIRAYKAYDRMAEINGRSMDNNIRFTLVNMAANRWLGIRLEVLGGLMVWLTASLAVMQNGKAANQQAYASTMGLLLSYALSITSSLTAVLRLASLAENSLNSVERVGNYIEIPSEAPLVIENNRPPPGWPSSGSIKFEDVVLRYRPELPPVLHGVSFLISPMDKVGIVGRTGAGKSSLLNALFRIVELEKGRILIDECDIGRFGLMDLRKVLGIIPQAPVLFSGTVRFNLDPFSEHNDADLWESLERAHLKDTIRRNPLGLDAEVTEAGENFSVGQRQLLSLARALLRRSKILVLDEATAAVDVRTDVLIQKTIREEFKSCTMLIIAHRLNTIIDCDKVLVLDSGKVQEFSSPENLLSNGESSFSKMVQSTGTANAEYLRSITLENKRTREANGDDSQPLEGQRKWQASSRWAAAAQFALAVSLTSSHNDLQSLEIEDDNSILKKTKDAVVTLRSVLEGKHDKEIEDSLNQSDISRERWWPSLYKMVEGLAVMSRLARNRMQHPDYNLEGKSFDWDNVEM

Consider `O=[N+]([O-])c1ccc(Cl)c([N+](=O)[O-])c1` [CDNB, 1-chloro-2,4-dinitrobenzene], for which the fold induction at 150 µM in test [1] was 1.7; in [2], 2.8. Further, the results for the inhibition of growth at 40 µM with DTY167 cells (40 μM CDNB) and with DTY165 cells (40 μM CDNB) were 65% and 14%, respectively. Further, the values for the inhibition of growth at 50 µM in the test with DTY167 cells (50 μM CDNB) and in the test with DTY165 cells (50 μM CDNB) were 82% and 31%, respectively. Besides, the inhibition of growth at 60 µM with DTY167 cells (60 μM CDNB) came out at 85%; in the test with DTY165 cells (60 μM CDNB), 59%. Further, the inhibition of growth at 70 µM was found to be 91% in the test on DTY167 cells (70 μM CDNB) and 92% in the test with DTY165 cells (70 μM CDNB).
With `CCN1C(=O)CC(SC[C@H](NC(=O)CC[C@H](N)C(=O)O)C(=O)NCC(=O)O)C1=O` (stereo partly shown) [glutathione-S-N-ethylmaleimide], the Km in [3] is 500 µM.
Regarding cyanin-3-glucoside-GS [C3G-GS], the “rate of C3G-GS uptake” value at AtMRP1 is reported as 7.9±0.7; on AtMRP2, 48.4±2.2 nmol/mg/10 min. The “Vmax for MgATP-dependent, uncoupler-insensitive uptake” value in test [4] stood at 79.1 ± 14.7 nmol/mg/10 min; in [6], 45.3 ± 6.5 nmol/mg/10 min. Besides, the figures for the Km in [4] (setting [7]) and in test [6] (setting [7]) were 39.5 ± 16.6 µM and 45.7 ± 14 µM, respectively. Besides, the Km estimated previously in this system in [5] is 46 µM. For the same molecule, in test [5] (comparison value for C3G-GS), the “Vmax of GS-X pump” value was 45 nmol/mg/min.

Usually Km stands for the substrate concentration at which the rate is half of its maximum.
